# Measurements published in patent publication US20260315606A1, “NOVEL COMPOUNDS CAPABLE OF INDUCING OSTEOGENIC DIFFERENTIATION” (AJOU UNIVERSITY INDUSTRY-ACADEMIC COOPERATION FOUNDATION, priority 2023, published 2026).
# Assays:
# [1] = target: T1, MDM2 (Homo sapiens, UniProt Q00987); assay: Western blot (SDS-PAGE) of intracellular MDM2 protein degradation in hDPSCs; format: cell-based; conditions: FIG. 2; selected treatment concentrations not given
# T1 construct: degradation by nutlin-based CRBN-recruiting PROTACs, Western blot
# Description: Human dental pulp stem cell lines (hDPSCs) were treated with 14 types of synthesized MDM2-PROTACs (10 μM) for 1 hour and Western blot analysis using SDS-PAGE gel was performed to evaluate the intracellular MDM2 protein degradation capacity.
# [2] = tested on: p53; assay: p53 activation in selection of compounds (FIG. 2); format: cell-based, human; conditions: selected treatment concentrations not given
# T1 sequence (Q00987 whole entry): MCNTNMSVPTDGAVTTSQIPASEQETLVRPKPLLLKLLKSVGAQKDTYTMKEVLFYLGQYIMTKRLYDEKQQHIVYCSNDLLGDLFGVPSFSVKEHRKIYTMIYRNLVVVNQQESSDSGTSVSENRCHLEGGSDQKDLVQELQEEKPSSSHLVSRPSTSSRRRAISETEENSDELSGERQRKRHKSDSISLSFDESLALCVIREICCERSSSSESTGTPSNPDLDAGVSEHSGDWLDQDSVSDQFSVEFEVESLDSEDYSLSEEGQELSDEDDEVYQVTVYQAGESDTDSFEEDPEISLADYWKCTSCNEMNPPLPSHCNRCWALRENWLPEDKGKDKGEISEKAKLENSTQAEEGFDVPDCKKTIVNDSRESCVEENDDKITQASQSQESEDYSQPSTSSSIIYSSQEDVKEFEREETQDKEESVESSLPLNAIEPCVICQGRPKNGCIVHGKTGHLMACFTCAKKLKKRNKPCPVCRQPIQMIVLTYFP
# T1 sequence (Q96SW2 whole entry partner): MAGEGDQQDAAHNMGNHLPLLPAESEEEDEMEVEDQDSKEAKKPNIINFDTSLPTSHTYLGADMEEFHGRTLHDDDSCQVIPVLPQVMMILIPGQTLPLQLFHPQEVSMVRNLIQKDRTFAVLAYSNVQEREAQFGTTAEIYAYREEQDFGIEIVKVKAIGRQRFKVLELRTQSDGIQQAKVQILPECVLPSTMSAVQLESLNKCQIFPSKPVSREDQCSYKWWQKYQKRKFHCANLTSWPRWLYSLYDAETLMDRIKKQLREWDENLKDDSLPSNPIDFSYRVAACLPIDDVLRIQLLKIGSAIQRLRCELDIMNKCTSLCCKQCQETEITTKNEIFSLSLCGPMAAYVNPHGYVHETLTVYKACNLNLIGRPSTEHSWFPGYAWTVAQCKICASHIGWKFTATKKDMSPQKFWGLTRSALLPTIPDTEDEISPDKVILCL
MDM2 degradation (selected compounds) [1],Substance,p53 activation (selected compounds) [2]
effectively degrade MDM2,"2-(4-(cis-4,5-bis(4-chlorophenyl)-2-(2-isopropoxy-4-methoxyphenyl)-4,5-dihydro-1H-imidazole-1-carbonyl)-2-oxopiperazin-1-yl)-N-(8-((2-(2,6-dioxo-opiperidin-3-yl)-1,3-dioxoisoindolin-4-yl)oxy)octyl)acetamide [Compound 6b]",activate p53
effectively degrade MDM2,"2-(4-(cis-4,5-bis(4-chlorophenyl)-2-(2-isopropoxy-oxopiperazin-1-yl)-N-(9-(2-(2,6-dioxopiperidin-3-yl)-1,3-dioxoisoindolin-4-yl)non-8-yn-1-yl) acetamide [Compound 16b]",activate p53
